Laboratory results: US9683994B2, “High throughput mobility shift” (Caliper Life Sciences, Inc., priority 2002, dated 2017)

Biological target: Protein Kinase A (PKA) (Homo sapiens, UniProt P17612)
Experiment: pulsed field mobility shift assay screening for Protein Kinase A (PKA) inhibitors
Assay type: biochemical
Details: from dose response curve (FIG. 10), 7 H9 concentrations 0.15-30.75 μM; pulsed field and standard (constant field) mobility shift assays predict same Ki; read-out: Ki value for the inhibitor
Procedure: In an exemplary embodiment, the pulsed field mobility shift assay was used for screening for Protein Kinase A (PKA) inhibitors. Samples were drawn from a 96 well plate into a microfluidic device through a capillary. The plate contained 7 different concentration samples (0.15 μM, 0.32 μM, 0.63 μM, 1.54 μM, 2.52 μM, 5.05 μM, and 30.75 μM) of H9 at randomly chosen wells. Except for a single well containing the 30.75 μM concentration of H9, two wells contained each of the other six concentrations of H9. The last column of each row of the well plate contained a marker used to indicate the end of row. In this embodiment, the marker was 1 μM of 100% converted PKA product. Once in the reaction channel of the microfluidic device, the pressure driven velocity of the sample was set at 0.028 cm/s and the applied electric field was set to 997 V/cm. […] Each sample was sipped for 30 seconds separated by a 30 second buffer sip. […] From the data in FIGS. 8 and 9, the parameter C1/C0, which is the ratio of the fluorescence measured while the electric field is on to the fluorescence measured while the field is off, was determined for each of the seven H9 concentrations. That parameter was also measured in the absence of H9 to provide a baseline value. The deviation from the baseline value ΔC/C=((C1/C0)|H9sample−(C1/C0)|buffer), was evaluated for each H9 sample. […]

Ki: 3.5 µM
Compound: NCCNS(=O)(=O)c1cccc2cnccc12 [H9]
